Among the data in ChEMBL document CHEMBL5126636, “Antibacterial Gilvocarcin-Type Aryl-C-Glycosides from a Soil-Derived Streptomyces Species” (2022) are MIC values, retold here.

Holding throughout (type): functional
In one experiment the test system is Candida albicans. Nature of the experiment: Antibacterial activity against Candida albicans ATCC 10231 by broth microdilution method. Background: Broth dilution looks for growth in wells or tubes with falling amounts of substance.
In a further experiment the test system is Pseudomonas aeruginosa. Nature of the experiment: Antibacterial activity against Pseudomonas aeruginosa ATCC 10145 by broth microdilution method.
The subject of the next experiment is Escherichia coli. Nature of the experiment: Antibacterial activity against Escherichia coli ATCC 11775 by broth microdilution method.
In experiment [1] the test system is Staphylococcus aureus. Nature of the experiment: Antibacterial activity against Staphylococcus aureus ATCC 6538 by broth microdilution method.
Experiment [2] concerns Staphylococcus aureus. Nature of the experiment: Antibacterial activity against methicillin resistant Staphylococcus aureus ATCC 43300 by broth microdilution method.
In another experiment the test system is Nakaseomyces glabratus. Nature of the experiment: Antibacterial activity against Candida Candida glabrata ATCC 2001 by broth microdilution method.

Converted amounts (≈) assume the structure as drawn.

The MIC is the least concentration at which growth counts as inhibited. Lower therefore signals greater potency.

Turning to `C=Cc1cc(OC)c2c(c1)c(=O)oc1c2cc(OC)c2c(O)ccc([C@H]3O[C@@H]([C@@H](C)O)[C@H](O)[C@H]3O)c21`, the MIC was over 64 µg/mL in the experiment with Candida albicans; over 64 µg/mL against Pseudomonas aeruginosa; over 64 µg/mL with Escherichia coli; 0.5 µg/mL (≈ 1.01 µM) with Staphylococcus aureus [1]; 0.25 µg/mL (≈ 0.506 µM) against Staphylococcus aureus [2]; over 64 µg/mL in the experiment on Nakaseomyces glabratus.

With `C=Cc1cc(OC)c2c(c1)c(=O)oc1c2cc(OC)c2c(OC(C)=O)ccc([C@H]3O[C@@H]([C@@H](C)OC(C)=O)[C@H](OC(C)=O)[C@H]3OC(C)=O)c21`, the MIC against Candida albicans, in the experiment with Pseudomonas aeruginosa, against Escherichia coli, in the experiment on Staphylococcus aureus [1], against Staphylococcus aureus [2] and in the experiment with Nakaseomyces glabratus was over 64 µg/mL throughout.

Turning to `CCc1cc(OC)c2c(c1)c(=O)oc1c2cc(OC)c2c(O)ccc([C@H]3O[C@@H]([C@@H](C)O)[C@H](O)[C@H]3O)c21`, the MIC against Candida albicans, against Pseudomonas aeruginosa, in the experiment with Escherichia coli, against Staphylococcus aureus [1], in the experiment with Staphylococcus aureus [2] and against Nakaseomyces glabratus was over 64 µg/mL each time.

Turning to `COc1cc2c(oc(=O)c3cc(C(O)CCl)cc(OC)c32)c2c([C@H]3O[C@@H]([C@@H](C)O)[C@H](O)[C@H]3O)ccc(O)c12` (stereo partly drawn), the MIC with Candida albicans, against Pseudomonas aeruginosa, with Escherichia coli, in the experiment with Staphylococcus aureus [1], in the experiment with Staphylococcus aureus [2] and against Nakaseomyces glabratus was over 64 µg/mL throughout.

For the compound `COc1cc2c(oc(=O)c3cc([C@H]4CC[C@H]4c4cc(OC)c5c(c4)c(=O)oc4c5cc(OC)c5c(O)ccc([C@H]6O[C@@H]([C@@H](C)O)[C@H](O)[C@H]6O)c54)cc(OC)c32)c2c([C@H]3O[C@@H]([C@@H](C)O)[C@H](O)[C@H]3O)ccc(O)c12`, the MIC in the experiment on Candida albicans was over 64 µg/mL; against Pseudomonas aeruginosa, over 64 µg/mL; against Escherichia coli, over 64 µg/mL; in the experiment on Staphylococcus aureus [1], 8 µg/mL (≈ 8.09 µM); against Staphylococcus aureus [2], 4 µg/mL (≈ 4.04 µM); in the experiment with Nakaseomyces glabratus, over 64 µg/mL.

For the compound `COc1cc2c(oc(=O)c3cc(C(C)C)cc(OC)c32)c2c([C@H]3O[C@@H]([C@@H](C)O)[C@H](O)[C@H]3O)ccc(O)c12`, the MIC with Candida albicans is over 64 µg/mL; against Pseudomonas aeruginosa it was over 64 µg/mL; against Escherichia coli it was over 64 µg/mL; against Staphylococcus aureus [1], over 64 µg/mL; with Staphylococcus aureus [2] it was 16 µg/mL (≈ 31.3 µM); in the experiment on Nakaseomyces glabratus, over 64 µg/mL.

As to `COc1cc2c(oc(=O)c3cc(C)cc(OC)c32)c2c([C@H]3O[C@@H]([C@@H](C)OC(C)=O)[C@H](OC(C)=O)[C@H]3OC(C)=O)ccc(OC(C)=O)c12`, the MIC against Candida albicans, in the experiment on Pseudomonas aeruginosa, with Escherichia coli, with Staphylococcus aureus [1], with Staphylococcus aureus [2] and against Nakaseomyces glabratus was over 64 µg/mL throughout.

Regarding `COc1cc2c(oc(=O)c3cc(CO)cc(OC)c32)c2c([C@H]3O[C@@H]([C@@H](C)O)[C@H](O)[C@H]3O)ccc(O)c12`, the MIC with Candida albicans, in the experiment on Pseudomonas aeruginosa, against Escherichia coli, against Staphylococcus aureus [1], against Staphylococcus aureus [2] and in the experiment with Nakaseomyces glabratus was over 64 µg/mL in each case.

Turning to `C=Cc1cc(OC)c2c(c1)c(=O)oc1c2cc(OC)c2c(O)ccc([C@@H]3O[C@@H]([C@@H](C)O)[C@H](O)[C@H]3O)c21`, the MIC in the experiment on Candida albicans was over 64 µg/mL; in the experiment on Pseudomonas aeruginosa, over 64 µg/mL; in the experiment on Escherichia coli it was over 64 µg/mL; in the experiment with Staphylococcus aureus [1] it was 64 µg/mL (≈ 129 µM); against Staphylococcus aureus [2], 16 µg/mL (≈ 32.4 µM); against Nakaseomyces glabratus, over 64 µg/mL.

For the compound `COc1cc2c(oc(=O)c3cc([C@H](C)OC(C)=O)cc(OC)c32)c2c([C@H]3O[C@@H]([C@@H](C)OC(C)=O)[C@H](OC(C)=O)[C@H]3OC(C)=O)ccc(OC(C)=O)c12`, the MIC with Candida albicans, against Pseudomonas aeruginosa, against Escherichia coli, in the experiment with Staphylococcus aureus [1], in the experiment with Staphylococcus aureus [2] and against Nakaseomyces glabratus was over 64 µg/mL in each case.

Turning to `COc1cc2c(oc(=O)c3cc(C(O)CO)cc(OC)c32)c2c([C@H]3O[C@@H]([C@@H](C)O)[C@H](O)[C@H]3O)ccc(O)c12` (stereo partly drawn), the MIC in the experiment on Candida albicans, against Pseudomonas aeruginosa, with Escherichia coli, in the experiment with Staphylococcus aureus [1], against Staphylococcus aureus [2] and in the experiment on Nakaseomyces glabratus was over 64 µg/mL throughout.

On to `COc1cc2c(oc(=O)c3cc([C@H](C)O)cc(OC)c32)c2c([C@H]3O[C@@H]([C@@H](C)O)[C@H](O)[C@H]3O)ccc(O)c12`, for which the MIC against Candida albicans, against Pseudomonas aeruginosa, in the experiment with Escherichia coli, in the experiment with Staphylococcus aureus [1], in the experiment on Staphylococcus aureus [2] and in the experiment with Nakaseomyces glabratus was over 64 µg/mL throughout.

For `COc1cc2c(oc(=O)c3cc(CCO)cc(OC)c32)c2c([C@H]3O[C@@H]([C@@H](C)O)[C@H](O)[C@H]3O)ccc(O)c12`, the MIC against Candida albicans is over 64 µg/mL; with Pseudomonas aeruginosa it was over 64 µg/mL; in the experiment with Escherichia coli it was over 64 µg/mL; in the experiment with Staphylococcus aureus [1] it was 32 µg/mL (≈ 62.4 µM); against Staphylococcus aureus [2] it was 64 µg/mL (≈ 125 µM); in the experiment with Nakaseomyces glabratus, over 64 µg/mL.

On to `C=Cc1cc(OC)c2c(c1)c(=O)oc1c3cccc(O)c3c(OC)cc12`, for which the MIC in the experiment on Candida albicans, against Pseudomonas aeruginosa, against Escherichia coli, against Staphylococcus aureus [1], in the experiment with Staphylococcus aureus [2] and against Nakaseomyces glabratus was over 64 µg/mL each time.

As to `COc1cc2c(oc(=O)c3cc(C)cc(OC)c32)c2c([C@H]3O[C@@H]([C@@H](C)O)[C@H](O)[C@H]3O)ccc(O)c12`, the MIC with Candida albicans is over 64 µg/mL; against Pseudomonas aeruginosa it was over 64 µg/mL; in the experiment with Escherichia coli, over 64 µg/mL; in the experiment on Staphylococcus aureus [1], 1 µg/mL (≈ 2.07 µM); against Staphylococcus aureus [2], 2 µg/mL (≈ 4.15 µM); with Nakaseomyces glabratus, over 64 µg/mL.

Consider `C=Cc1cc(OC)c2c(c1)c(=O)oc1c2cc(OC)c2c(O)ccc([C@@H]3O[C@@H]([C@H](O)CO)[C@H](O)[C@H]3O)c21`, for which the MIC against Candida albicans is over 64 µg/mL; in the experiment with Pseudomonas aeruginosa, over 64 µg/mL; with Escherichia coli, over 64 µg/mL; in the experiment on Staphylococcus aureus [1], 16 µg/mL (≈ 31.3 µM); in the experiment on Staphylococcus aureus [2], 8 µg/mL (≈ 15.7 µM); against Nakaseomyces glabratus, over 64 µg/mL.

In the case of `O=C(O)c1cn(C2CC2)c2cc(N3CCNCC3)c(F)cc2c1=O` [CIPROFLOXACIN], the MIC in the experiment with Staphylococcus aureus [1] amounted to 0.25 µg/mL (≈ 0.754 µM); in the experiment with Staphylococcus aureus [2], 0.5 µg/mL (≈ 1.51 µM).
